In patent US20090012179A1, “Use of Tyrphostins to Stimulate Neurite Outgrowth” (priority 2004, published 2009):
Entries after “also recorded” stand apart in the source; their conditions may differ.

Assays:
[1] = system: ERK1 (p44); experiment: ERK1 (p44) activation in NS20Y cells; type: cell-based, mouse
Experimental: (§1) Cell stimulation, immunoblotting, and immunoprecipitation: Cells or neurons are grown in 6-well or 12-well plates to 80-90% confluence. The cells are starved in serum-free DMEM overnight, and then incubated with receptor agonists at 37° C. for the indicated durations. In some experiments, signaling inhibitors are added 45 minutes before simulation. Incubation is terminated by placing the tissue culture cluster on ice and rapidly aspirating the medium, followed by the addition of ice-cold RIPA^+ buffer (50 mM Tris-HCl, pH 7.5, 150 mM NaCl, 1% NP-40, 0.5% deoxycholate, 0.1% SDS, 1 mM NaVO3, and protease inhibitor (Calbiochem, San Diego, Calif.)) and incubation for 15 minutes with shaking. After centrifugation (14,000×g at 4° C. for 15 minutes), the supernatant is collected and the protein concentration is measured and adjusted using RIPA^+ buffer. Samples (30 μl) with equal amounts of protein mixed with Laemmli loading buffer are denatured at 70° C. for 10 minutes and separated by SDS-PAGE. […] The proteins are transferred to PVDF membrane (Millipore), detected with the primary antibodies (including anti-active ERK; anti-p-Tyr clone 4G10, Upstate; anti-TH; anti-DAT, sigma, anti-β-tubulin, etc.) and visualized with the SuperSignal™ West Pico chemiluminescent kit (Pierce Biotechnology, Rockford, Ill.). The intensity of bands is quantified using ImageQuant™ 5.2 (Amersham). […]

[2] = system: primary rat SNc neuron cultures; experiment: [3H]Dopamine uptake in primary SNc neuron cultures; type: cell-based; settings: A9 for six days
Experimental: Primary cultures of rat embryonic SNc neuron cultures were grown on treated 12-well plates (for dopamine uptake) or coverslips (for neuroprotection) for 10 days as described in the Examples section. In FIG. 6A, the neurons were treated with different concentrations of A9 for 6 days before dopamine uptake was measured. Data=mean±SD (n=3). In FIG. 6B, MPP^+ (25 μM) was added into medium on day 11, while A9 was added either on day 10 (pretreatment) or day 12 (after MPP^+). Half of the medium was changed with fresh A9 on day 14. The neurons were fixed on day 16 and stained for tyrosine hydroxylase (TH, green) and total-ERK (red). Images were captured with fluorescence microscopy at magnification×100.
Dopamine uptake: NS20Y cells or neuron cultures are plated on poly-L-lysine (for NS20Y) or poly-D-lysine (for neuron culture)-coated 24-well plates and grown to confluence. The medium is decanted and cells are prepared for [^3H]dopamine uptake. Cells are incubated in the presence or absence of mazindol (10 μM to determine nonspecific uptake) for at least 10 minutes prior to addition of [^3H]dopamine. The uptake assay (final volume 0.5 ml) is initiated by the addition of 50 nM [^3H]dopamine and 2 μM dopamine in Krebs-HEPES buffer. […] Radioactivity remaining in each well is determined using liquid scintillation spectrometry. […]

[3] = system: SH-SY5Y cells; experiment: Neurite length in NGF-treated SH-SY5Y neuroblastoma cells; type: cell-based, human; settings: 96 and 168 hours; for Neurite length / neurite elongation: SH-SY5Y + NGF 10 ng/ml, FK506 100 nM, A9 10 nM, 100 nM and 1 μM
Experimental: Analysis of neurite length in SH-SY5Y neuroblastoma cells: SH-SY5Y neuroblastoma cells develop axonal-like processes on treatment with NGF. For analysis of process length, cells (20 fields/well) are randomly photographed at 96 and 168 hours. Neurite lengths are measured on photographic prints using a Houston Instrument HI-PAD digitizing tablet connected to a computer with appropriate software (Bioquant IV); only processes more than twice the cell body length are measured. Data from identically treated wells are combined. […] Histograms are compared using a Mann-Whitney U test (α=0.05), which makes no assumptions about the shape of the distribution.
As disclosed herein, high and sustained ERK activation induces neurite growth in […] neuroblastoma cells and protects neuronal cells from neurotoxins. To test this, SH-SY5Y human neuroblastoma cells were used, which can be induced into neuron-like phenotype by NGF treatment. This is an established method for measuring neurite growth-promoting activity in vitro in Dr. Gold's lab (Gold et al., Neurosignals. 13:122-129, 2004; Gold et al., Exp. Neurol. 147:269-278, 1997). […] Representative micrographs at 168 hours for vehicle (control), NGF (10 ng/ml), and NGF (10 ng/ml) plus A9 (100 nM) are shown in FIG. 5B.

[4] = system: ERK; experiment: ERK activation in the brain; type: in vivo; settings: observation, no data shown
[5] = system: ERK; experiment: ERK activation in HEK293 cells; type: cell-based, human
Experimental: as §1, with “buffer.” for “buffer. Samples (30 μl) with equal amounts of protein mixed with Laemmli loading buffer are denatured at 70° C. for 10 minutes and separated by SDS-PAGE.”
It was determined that A9 could activate ERK while characterizing the transactivation of receptor tyrosine kinases by the dopamine D2 receptor.

CC(C)(C)c1cc(C=C(C#N)C#N)cc(C(C)(C)C)c1O [A9, tyrphostin A9]
ERK1 (p44) activation [1]: activated ERK1 (p44) the most
Concentration at which maximum dopamine uptake response is reached [2]: 100 nM
Dopamine uptake [2]: increased dopamine uptake in primary rat SNc neuron cultures in a concentration-dependent manner; also recorded: stimulated dopamine uptake increase
Neurite length / neurite elongation [3]: dramatically increased in length
Neurite length / neurite elongation ([3]; listed as tyrphostin A9): stimulated neurite elongation
Distribution of neurite length (cumulative histograms), shift to the right versus NGF-treated ([3]; SH-SY5Y): more pronounced
ERK activation in the brain [4]: can cause ERK activation in the brain
ERK activation [5]: but not in HEK293
D2 receptor-induced activation of ERK ([5]; A9 pretreatment): prevented D2 receptor-induced activation of ERK
